According to US20230097603A1, “NICOTINAMIDE MONONUCLEOTIDE DERIVATIVES FOR THE TREATMENT OF ARRHYTHMIA” (NUVAMID SA, priority 2020, published 2023):
Entries after “also recorded” stand apart in the source; their conditions may differ.

Tests used:
[1] = system: arrhythmias induced by doxorubicin; assay: Arrhythmia induced by doxorubicin in mice, heart rate by ECG; assay type: in vivo; settings: for heart rate 5 days after the injection of DOX (effect in words): vs DOX + carrier
Description: The goal of this study was to evaluate the effects of an i.p. administration of compounds I-C, I-J and I-K, at 180 mg/kg, on arrhythmias induced by doxorubicin. 76 male mice, 8 weeks old on arrival, were obtained from Janvier Labs, Le Genest St Isle, 53941 St Berthevin, France. Each animal was identified with an electronic chip. The powder of compounds I-C, I-J and I-K (180 mg/kg) was dissolved in the carrier (the solution was used at ambient temperature for a maximum of 1 day). […] Doxorubicin was prepared at 2 mg/mL and the administration volume was 10 mL/kg. The control group received an injection of saline solution. Each group comprises 14 to 24 mice. As indicated in the regulations relating to non-clinical laboratory studies, the groups of test and control animals have been kept under identical conditions. The envisaged duration of the study was 11 days. […] The treatment with compounds I-C, I-J and I-K was initiated after 5 days before the injection of DOX, once per day from Day 5 to Day 0. The mice were treated i.p with compounds I-C, I-J and I-K 30 minutes before the injection of DOX. The mice were treated i.p with compounds I-C, I-J and I-K during the duration of the experiment (J0 to J5) once per day. […] In particular, the heart rate was evaluated during the ECG: […]

[2] = system: ischaemia-reperfusion rat; assay: Arrhythmia induced by ischaemia-reperfusion in anaesthetised rats; assay type: in vivo; settings: for ventricular fibrillation during the ischaemia (effect in words) / ventricular tachycardia during the ischaemia (effect in words) / incidence of ventricular tachycardia during reperfusion (effect in words) / duration of ventricular tachycardia during reperfusion (effect in words) / ventricular fibrillation during reperfusion (effect in words) / mortality during the reperfusion period (effect in words): iv; for ventricular fibrillation during the ischaemia (effect in words) / ventricular tachycardia during the ischaemia (effect in words): I-C 185 mg/kg 30 min before, cariporide 0.3 mg/kg 5 min before ischaemia; for incidence of ventricular tachycardia during reperfusion (effect in words) / duration of ventricular tachycardia during reperfusion (effect in words) / ventricular fibrillation during reperfusion (effect in words) / mortality during the reperfusion period (effect in words): I-C 185 mg/kg, cariporide 0.3 mg/kg; for duration of ventricular tachycardia during reperfusion (effect in words) / ventricular fibrillation during reperfusion (effect in words): vs carrier; for mortality during the reperfusion period (effect in words): carrier group 25% death
Description: Arrhythmias were obtained in an acute model of ischaemia-reperfusion in rats.
The rats were first anaesthetised, then intubated and mechanically ventilated, before being prepared for surgery.
Catheters were then placed in the carotid artery in order to measure the arterial pressure and in the caudal vein for the perfusion of drugs. The arterial catheter consists in a catheter filled with fluid which sends the pressure to a transducer located nearby. The mean arterial pressure is calculated electronically and recorded continuously.
A three-lead electrocardiogram (ECG) was recorded throughout the procedure by means of needle electrodes attached to the limbs.
The modifications to the ECG, mean arterial pressure (MAP) and the heart rate were measured before and during the occlusion-reperfusion period. The definitions of the arrhythmias are based on those described in the Lambeth conventions (Walker and al., The Lambeth conventions: guidelines for the study of arrhythmias in ischaemia infarction, and reperfusion, Cardiovascular Research, 1988, 22(7), 447-455). The ectopic activity has been categorized as a single ventricular premature beat (VPB), a ventricular tachycardia (VT, four or more consecutive VPBs) or a ventricular fibrillation (VF, inability to distinguish individual QRS complexes and to measure the rate). The arterial pressure traces were referred to in order to confirm which type of ectopic activity was produced, in particular to distinguish between polymorphic VT and VF. When the first is produced, the arterial pressure is generally still pulsatile whereas with VF, the arterial pressure falls rapidly towards zero and is no longer pulsatile. The VF can be sustained or can spontaneously return to a normal sinusoidal rhythm in rats. In all the experiments, the incidences of TV and VF as well as the duration of the ventricular tachycardia were noted.
The heart was then exposed by a left intercostal thoracotomy. After opening the pericardium, a 6.0 silk stitch was placed around the left coronary artery on a polypropylene tube in order to form a collar. The hearts were subjected to an ischaemia for 7 minutes by tightening the suture 5 minutes after the treatment. Finally, the collar occluder was released in order to allow the reperfusion of the myocardial tissue for 10 minutes. At the end of the reperfusion period, the rats were euthanised by cervical dislocation while still anaesthetised.
The means± the standard error on the mean are presented.
The statistical analysis was carried out using the GraphPad Prism 5 software. The Fisher test was used to analyse the differences between the incidences of arrhythmias, while the chi-squared test was used to compare the incidence of mortality. The Kruskall-Wallis test was used to analyse the differences between the duration of the tachycardia and the ventricular fibrillations and the difference in the number of ventricular fibrillations.
The rats were treated by the intravenous route with a saline solution, a compound of formula I-C at 185 mg/kg (30 minutes before the ischaemia) or cariporide at 0.3 mg/kg (5 minutes before the ischaemia). The animals were subjected to a 7-minute ischaemia and a 10-minute reperfusion. Throughout the experimental phase, the arterial pressure and ECG profiles were recorded continuously. Blood was sampled 5 minutes after the end of the reperfusion and the heart was weighed.

infarction = settings: ischaemia of at least 30 minutes and reperfusion of at least 60 minutes; cited from earlier work
[3] = DOX 20 mg/kg i.p. + compound 180 mg/kg i.p. once per day
[4] = 185 mg/kg iv 30 minutes before ischaemia, 7-minute ischaemia
[5] = 185 mg/kg iv, 10-minute reperfusion

| SMILES | heart rate 5 days after the injection of DOX (effect in words) [1, 3] | ventricular fibrillation during the ischaemia (effect in words) [2] | ventricular tachycardia during the ischaemia (effect in words) [2] | incidence of ventricular tachycardia during reperfusion (effect in words) ([2]; 10-minute reperfusion) | duration of ventricular tachycardia during reperfusion (effect in words) ([2]; 10-minute reperfusion) | ventricular fibrillation during reperfusion (effect in words) ([2]; 10-minute reperfusion) | mortality during the reperfusion period (effect in words) [2] | other results |
| --- | --- | --- | --- | --- | --- | --- | --- | --- |
| COc1cccc2c1C(=O)c1c(O)c3c(c(O)c1C2=O)C[C@@](O)(C(=O)CO)C[C@@H]3O[C@H]1C[C@H](N)[C@H](O)[C@H](C)O1 [doxorubicin, reference compound] | – | – | – | – | – | – | – | heart rate 5 days after the injection of DOX ([1]; DOX 20 mg/kg i.p. + carrier, control mice 525.6±19.8 bpm): 365.1±23.9 bpm |
| NC(=O)c1ccc[n+]([C@@H]2O[C@H](COP(=O)([O-])OP(=O)([O-])OC[C@H]3O[C@H]([n+]4cccc(C(N)=O)c4)[C@H](O)[C@@H]3O)[C@@H](O)[C@H]2O)c1 [I-J] | increase in heart rates; also recorded: significantly attenuated | – | – | – | – | – | – | heart rate 5 days after the injection of DOX [1, 3]: 470.1±18.8 bpm |
| CC(C)c1ccc(C(=O)NC(=N)N)cc1S(C)(=O)=O [Cariporide, reference compound] | – | removed | removed | no beneficial effect | tendency to be shorter | removed | removed | – |
| NC(=O)c1ccc[n+]([C@@H]2O[C@H](COP(=O)([O-])O)[C@@H](O)[C@H]2O)c1 [I-C] | increase in heart rates; also recorded: significantly attenuated | remove the ventricular fibrillation | significantly reduce the incidence and duration | no effect | appeared to reduce the duration | tendency to reduce the incidence | removed mortality | duration of ventricular tachycardia during the ischaemia [2, 4]: 0.2 ± 0.2 s; incidence of ventricular tachycardia during the ischaemia [2, 4]: approximately 9%; duration of ventricular fibrillation during reperfusion [2, 5]: 4.0±2.3 % of the duration of the reperfusion; incidence of ventricular fibrillation during reperfusion [2, 5]: approximately 55%; number of ventricular fibrillations during reperfusion [2, 5]: approximately one |
| NC(=O)c1ccc[n+]([C@H]2O[C@H](COP(=O)([O-])OP(=O)([O-])OC[C@H]3O[C@H]([n+]4cccc(C(N)=O)c4)[C@H](O)[C@@H]3O)[C@@H](O)[C@H]2O)c1 [I-K] | increase in heart rates; also recorded: significantly attenuated | – | – | – | – | – | – | – |
| NC(=O)c1ccc[n+]([C@@H]2O[C@H](COP(=O)([O-])O)[C@@H](O)[C@H]2O)c1 [NMN, Nicotinamide Mononucleotide] | – | – | – | – | – | – | – | protective effect against infarction (infarction): protects the heart |
